In ChEMBL document CHEMBL1136359, “11,12-epoxyeicosatrienoic acid (11,12-EET): structural determinants for inhibition of TNF-alpha-induced VCAM-1 expression” (Bioorg Med Chem Lett, 2003):

What follows are molecules tested on HSVEC (assay: (§1) Inhibitory activity against tumor necrosis factor-alpha (TNF-alpha) induced vascular cell adhesion molecule-1 (VCAM-1) in human endothelial cells).
Format: functional, cell-based
`CCCCCCCCCOCC/C=C\CCCCCCC(=O)O` was tested, and the IC50 was 0.045 µM.
`CCCCCCCCC1OC1C/C=C\CCCCCCC(=O)O` (stereo in doubt; 9) gave an IC50 of 0.06 µM.

Each molecule was assayed on HSVEC (assay: as §1).
Format: functional
With `CCCCC/C=C\C[C@@H]1O[C@@H]1C/C=C\C/C=C\CCCC(=O)O` the Inhibition was 35%.
In the case of `CCCCCCCCC1CC1C/C=C\CCCCCCC(=O)O` (centres undefined), the Inhibition is reported as 31%.
Molecule `CCCCCCCCCOCC/C=C\CCCCCCC(=O)O` has an Inhibition of 48%.
`CCCCCCCCCCC1OC1C/C=C\CCCCCCC(=O)O` (centres undefined) showed an Inhibition of -1%.
`CCCCC/C=C\C[C@H]1O[C@H]1C/C=C\C/C=C\CCCC(=O)O` showed an Inhibition of 31%.
`CCCCCCCCc1cocc1C/C=C\CCCCCCC(=O)O` was tested, and the Inhibition was 50%.
`CCCCCCCCC1OC1CCCC/C=C\CCCC(=O)O` (centres undefined) gave an Inhibition of 31%.
`CCCCCCCCC1OC1CC#CCCCCCCC(=O)O` (centres undefined) showed an Inhibition of 28%.
Molecule `CCCCCCCCC1OC1CCCCCCCCCC(=O)O` (centres undefined) has an Inhibition of 36%.
With `CCCCCCCCC1SC1C/C=C\CCCCCCC(=O)O` (stereo in doubt; 16) the Inhibition was 26%.
`CCCCC/C=C\CC1OC1C/C=C\C/C=C\CCCC(=O)O` (centres undefined) was tested, and the Inhibition was 39%.
`CCCCCCCC[C@@H]1O[C@@H]1C/C=C\CCCCC(=O)O` gave an Inhibition of 17%.
For `CCCCCCCCC1OC1C/C=C\CCCCCCCO` (centres undefined), the Inhibition was 32%.
In the case of `CCCCCCCC[C@H]1O[C@H]1C/C=C\CCCCC(=O)O`, the Inhibition is reported as 13%.
`CCCCCCCCC1OC1C/C=C\CCCCCCC(=O)O` (stereo in doubt; 9) was tested, and the Inhibition was 69%.
For `CCCCC/C=C\CC1OC1CCCC/C=C\CCCC(=O)O` (centres undefined), the Inhibition was 30%.
`O=C(O)CCCCCC/C=C\CCOCCCCCCCCCOc1ccc(I)cc1` was tested, and the Inhibition was 52%.
Molecule `CCCCCCCCC1OC1C/C=C\CCCCOCC(=O)O` (centres undefined) has an Inhibition of 3%.
With `CCCCC/C=C\CC1OC1CCCCCCCCCC(=O)O` (centres undefined) the Inhibition was 13%.
`CCCCCCCCC1OC1C/C=C\CCCCCCC(=O)O` (stereo in doubt; 11) showed an Inhibition of 58%.
`CCCCCCCCC1OC1C/C=C\CCCCCCC(=O)NS(C)(=O)=O` (stereo in doubt; 29) gave an Inhibition of 29%.
With `O=C(O)CCCCCC/C=C\CCOCCCCCCCCCO` the Inhibition was 27%.
`CCCCC/C=C\CC1OC1C/C=C\CCCCCCC(=O)O` (centres undefined) showed an Inhibition of 10%.
In the case of `CCCCCCCCCOCC/C=C\CCCCCCC(=O)NS(C)(=O)=O`, the Inhibition is reported as 1%.
With `CCCCCCCCC1OC1CC/C=C\CCCCCC(=O)O` (centres undefined) the Inhibition was 13%.
`CCCCCCCCC1OC1C/C=C\CCCCCCC(=O)O` (stereo in doubt; 21) showed an Inhibition of 1%.
Molecule `CCCCCCCCC1SC1C/C=C\CCCCCCC(=O)O` (stereo in doubt; 15) has an Inhibition of 49%.
With `CCCCCCCCC1OC1C/C=C\CCCCCCC(=O)NS(=O)(=O)c1ccccc1` (centres undefined) the Inhibition was 33%.
`CC(=O)NCCCCCCCCCOCC/C=C\CCCCCCC(=O)O` gave an Inhibition of 63%.
`CCCCC/C=C\CC1SC1C/C=C\C/C=C\CCCC(=O)O` (centres undefined) was tested, and the Inhibition was 65%.
In the case of `CCCCCCCCC1OC1C/C=C\CCCCCCC(=O)NS(C)(=O)=O` (stereo in doubt; 30), the Inhibition is reported as 31%.
Molecule `O=C(O)CCCCCC/C=C\CC1OC1CCCCCCCCO` (centres undefined) has an Inhibition of 36%.
